Source: patent publication US9902710B2, “Substituted 6, 7-dialkoxy-3-isoquinoline derivatives as inhibitors of phosphodiesterase 10 (PDE 10A)” (Allergan, Inc., priority 2013, dated 2018)
Structures can show the parent of a compound that is named as a salt. One block for each compound: values may come before it.

Molecular target: PDE10A
Experiment: Diaxonhit phosphodiesterase assay (TR-FRET, LANCE cAMP kit), PDE10A
Assay type: biochemical
Protocol: Diaxonhit Phosphodiesterase Assay (PDE10A and PDE4D3)
The PDE assay is based on the homogenous time-resolved fluorescence resonance energy transfer (TR-FRET) technology (LANCE® from Perkin Elmer). […] When there is PDE activity, resulting in the degradation of the cyclic nucleotide, the complex is not formed and a decrease in signal is observed.
The phosphodiesterase assay was developed using the LANCE® cAMP kit (PerkinElmer). The assay buffer contained HBSS with 5 mM HEPES, 0.1% BSA, and 1.5 mM MgCl2, pH 7.4. […] Chemical compounds were dissolved in DMSO (final concentration 2% (v/v)).
In a 384-well plate, 2 μL of the inhibitor and 3 μL PDE were added to the well, followed by the addition of 5 μl substrate biotinylated cAMP (1:5). After 60 min incubation at room temperature, 10 μL of assay detection mixture was added to the assay plate. After 1 h at room temperature, the signal was measured on EnVision™ (PerkinElmer).

Structure (SMILES): CCCc1ncc(Cc2cc3cc(OC)ccc3nc2NC)c2cc(OC)c(OC)cc12 [Compound 129, 3-((6,7-dimethoxy-1-propylisoquinolin-4-yl)methyl)-6-methoxy-N-methylquinolin-2-amine]
IC50: 9.5 nM

Structure (SMILES): COc1cc2cncc(Cc3ccc4cccc(OCCO)c4n3)c2cc1OC [Compound 42, 2-((2-((6,7-dimethoxyisoquinolin-4-yl)methyl)quinolin-8-yl)oxy)ethanol dihydrochloride]
IC50: 42 nM

Structure (SMILES): CCc1ncc(Cc2ccc3cccc(CNS(N)(=O)=O)c3n2)c2cc(OC)c(OC)cc12 [Compound 94, N-((2-((1-ethyl-6,7-dimethoxyisoquinolin-4-yl)methyl)quinolin-8-yl)methyl)sulfamide]
IC50: 13 nM

Structure (SMILES): COc1cc2c(Cc3ccc4cccc(N)c4n3)cnc(C)c2cc1OC [Compound 152, 2-((6,7-dimethoxy-1-methylisoquinolin-4-yl)methyl)quinolin-8-amine]
IC50: 13 nM

Structure (SMILES): COc1cc2cncc(Cc3ccc4sccc4c3)c2cc1OC [Compound 3, 4-(benzo[b]thiophen-5-ylmethyl)-6,7-dimethoxyisoquinoline hydrochloride]
IC50: 100 nM

Structure (SMILES): CCCc1ncc(Cc2cc3cc(OC)ccc3nc2O)c2cc(OC)c(OC)cc12 [Compound 49, 3-((6,7-dimethoxy-1-propylisoquinolin-4-yl)methyl)-6-methoxyquinolin-2-ol dihydrochloride]
IC50: 63 nM

Structure (SMILES): CCCc1ncc(Cc2ccc3cccc(OCC(=O)NC4CC4)c3n2)c2cc(OC)c(OC)cc12 [Compound 126, N-cyclopropyl-2-((2-((6,7-dimethoxy-1-propylisoquinolin-4-yl)methyl)quinolin-8-yl)oxy)acetamide]
IC50: 71 nM

Structure (SMILES): CCCc1ncc(Cc2cc3cc(OC)ccc3nc2NCCNC(C)=O)c2cc(OC)c(OC)cc12 [Compound 76, N-(2-((3-((6,7-dimethoxy-1-propylisoquinolin-4-yl)methyl)-6-methoxyquinolin-2-yl)amino)ethyl)acetamide dihydrochloride]
IC50: 11 nM

Structure (SMILES): CCNc1nc2ccc(OC)cc2cc1Cc1cncc2cc(OC)c(OC)cc12 [Compound 113, 3-((6,7-dimethoxyisoquinolin-4-yl)methyl)-N-ethyl-6-methoxyquinolin-2-amine dihydrochloride]
IC50: 32 nM

Structure (SMILES): CCCc1ncc(Cc2cnc3ccc(OP(=O)(O)O)cc3c2)c2cc(OC)c(OC)cc12 [Compound 171, sodium 3-((6,7-dimethoxy-1-propylisoquinolin-4-yl)methyl)quinolin-6-yl phosphate]
IC50: 62 nM

Structure (SMILES): CCCc1ncc(Cc2cnc3ccc(OCC(N)=O)cc3c2)c2cc(OC)c(OC)cc12 [Compound 144, 2-((3-((6,7-dimethoxy-1-propylisoquinolin-4-yl)methyl)quinolin-6-yl)oxy)acetamide]
IC50: 6.5 nM

Structure (SMILES): COc1cc2cncc(Cc3ccc4cccc(OC)c4n3)c2cc1OC [Compound 21, 2-((6,7-dimethoxyisoquinolin-4-yl)methyl)-8-methoxyquinoline dihydrochloride]
IC50: 46 nM

Structure (SMILES): COc1cc2c(Cc3ccc4nc(C)ccc4c3)cnc(C)c2cc1OC [Compound 105, 6-((6,7-dimethoxy-1-methylisoquinolin-4-yl)methyl)-2-methylquinoline dihydrochloride]
IC50: 4.3 nM

Structure (SMILES): COc1cc2c(Cc3cnc4ccccc4c3)cnc(C)c2cc1OC [Compound 26, 3-((6,7-dimethoxy-1-methylisoquinolin-4-yl)methyl)quinoline dihydrochloride]
IC50: 49 nM

Structure (SMILES): COc1cc2cnc(C)c(Cc3cnc4ccccc4c3)c2cc1OC [Compound 43, 3-((6,7-dimethoxy-3-methylisoquinolin-4-yl)methyl)quinoline dihydrocloride]
IC50: 39 nM

Further compounds by falling IC50, results first:

IC50: 495 nM
Structure (SMILES): CCOC(=O)C(=O)Nc1cccc2ccc(Cc3cnc(CC)c4cc(OC)c(OC)cc34)nc12 [Compound 92, ethyl 2-((2-((1-ethyl-6,7-dimethoxyisoquinolin-4-yl)methyl)quinolin-8-yl)amino)-2-oxoacetate]

IC50: 151 nM
Structure (SMILES): CCCc1ncc(Cc2cc3cc(C)ccc3nc2O)c2cc(OC)c(OC)cc12 [Compound 54, 3-((6,7-dimethoxy-1-propylisoquinolin-4-yl)methyl)-6-methylquinolin-2-ol dihydrochloride]

IC50: 87 nM
Structure (SMILES): CCCc1ncc(Cc2ccc3oc(=O)n(CC(N)=O)c3c2)c2cc(OC)c(OC)cc12 [Compound 148, 2-(5-((6,7-dimethoxy-1-propylisoquinolin-4-yl)methyl)-2-oxobenzo[d]oxazol-3(2H)-yl)acetamide]

IC50: 61 nM
Structure (SMILES): COC(=O)c1ccc(-c2nc3cc(Cc4cncc5cc(OC)c(OC)cc45)ccc3o2)cc1 [Compound 115, methyl 4-(5-((6,7-dimethoxyisoquinolin-4-yl)methyl)benzo[d]oxazol-2-yl)benzoate]

IC50: 59 nM
Structure (SMILES): CCOC(=O)COc1cccc2ccc(Cc3cnc(CC)c4cc(OC)c(OC)cc34)nc12 [Compound 128, ethyl 2-((2-((1-ethyl-6,7-dimethoxyisoquinolin-4-yl)methyl)quinolin-8-yl)oxy)acetate]

IC50: 43 nM
Structure (SMILES): CCc1ncc(Cc2cnc3ccc(N(C)S(C)(=O)=O)cc3c2)c2cc(OC)c(OC)cc12 [Compound 101, N-(3-((1-ethyl-6,7-dimethoxyisoquinolin-4-yl)methyl)quinolin-6-yl)-N-methylmethanesulfonamide]

IC50: 20 nM
Structure (SMILES): CCCc1ncc(Cc2ccc3nc(C)ccc3c2)c2cc(OC)c(OC)cc12 [Compound 57, 6-((6,7-dimethoxy-1-propylisoquinolin-4-yl)methyl)-2-methylquinoline dihydrochloride]

IC50: 11 nM
Structure (SMILES): CCc1ncc(Cc2ccc3cccc(O)c3n2)c2cc(OC)c(OC)cc12 [Compound 83, 2-((1-ethyl-6,7-dimethoxyisoquinolin-4-yl)methyl)quinolin-8-ol]

IC50: 6 nM
Structure (SMILES): COc1cc2cncc(Cc3cnc4ccc(O)c(C(F)(F)F)c4c3)c2cc1OC [Compound 161, 3-((6,7-dimethoxyisoquinolin-4-yl)methyl)-5-(trifluoromethyl)quinolin-6-ol]

IC50: 3.5 nM
Structure (SMILES): CCc1ncc(Cc2cnc3ccc(NC(=O)C(N)=O)cc3c2)c2cc(OC)c(OC)cc12 [Compound 98, N^1-(3-((1-ethyl-6,7-dimethoxyisoquinolin-4-yl)methyl)quinolin-6-yl)oxalamide]
